In patent US10513533B2, “Tunicamycin related compounds with anti-bacterial activity” (priority 2017, dated 2019):
Entries after “also recorded” stand apart in the source; their conditions may differ.

Assays:
Saccharomyces cerevisiae = test: agar diffusion-zone of inhibition assay; format: cell-based; details: for Zone of Clearing (cm) Yeast: Example 1, 0.5 μg spotted
Bacillus subtilis = test: agar diffusion-zone of inhibition assay; format: cell-based; details: for Zone of Clearing (cm) B. subtilis: Example 1, 0.5 μg spotted
[1] = test system: AtchitIV5 N-glycosylation; test: Pichia-based protein N-glycosylation assay (SDS-PAGE); format: cell-based; details: Example 2, 20 μg/mL, added at methanol induction
B. subtilis strain MW10 = test: beta-lactam enhancement, broth dilution MIC with resazurin; details: for MIC of the beta-lactam without any tunicamycins or tunicamycin related compounds added: beta-lactam alone
[2] = test system: cell wall teichoic acid (WTA) pathway; details: background, literature; cited from earlier work
[3] = test system: Chinese hamster ovary (CHO) cells; test: cytotoxicity against mammalian cell line in culture; format: cell-based; details: FIG. 8A, 0.5 μg, 1.0 μg, 2.0 μg
Text: Chinese hamster ovary (CHO) cells are chosen for this experiment because they have been used previously as a model for tunicamycin toxicity. See, e.g., Scocca and Krag, J. Biol. Chem., 265:20621-20626 (1990). A human cell line (MDA-MB-231 triple negative human breast cancer cells) are also used because their known susceptibility to tunicamycin. See, Banerjee, et al., Cancer Res. 71:2095 (2011). The protocols used are described in Duksin & Bornstein, Proc. Natl. Acad. Sci. (U.S.A.), 74:3433-3437 (1977).

Compound | Zone of Clearing (cm) Yeast (Saccharomyces cerevisiae) [cm] | Zone of Clearing (cm) B. subtilis (Bacillus subtilis) [cm] | toxicity / antimicrobial activity on S. cerevisiae (in words) (Saccharomyces cerevisiae) | antimicrobial activity on Bacillus (in words) (Bacillus subtilis) | other results
CC(=O)NC1C(O)[C@H](O)C(CO)O[C@@H]1OC1O[C@H](C[C@@H](O)C2O[C@@H](n3ccc(=O)[nH]c3=O)[C@H](O)[C@@H]2O)C(O)C(O)[C@H]1N (some centres unmarked) [Compound 1] | 0 | 0 |  |  | 
CC(=O)NC1C(O)[C@H](O)[C@H](CO)O[C@@H]1O[C@@H]1O[C@H](C[C@@H](O)C2O[C@@H](n3ccc(=O)[nH]c3=O)[C@H](O)[C@@H]2O)C(O)C(O)[C@H]1NC(=O)/C=C/CCCCCCCCCC(C)C (some centres unmarked) [Compound 2] | 2.4 | 2.5 | same antimicrobial activity as the native tunicamycin | same antimicrobial activity as the native tunicamycin | inhibition of AtchitIV5 N-glycosylation (in words) [1]: same effect as the naturally occurring tunicamycins
CC(=O)NC1C(O)[C@H](O)[C@H](CO)O[C@@H]1O[C@@H]1O[C@H](C[C@@H](O)C2O[C@@H](n3ccc(=O)[nH]c3=O)[C@H](O)[C@@H]2O)C(O)C(O)[C@H]1NC(=O)CCCCCCCCCCCC(C)C (some centres unmarked) [Compound 3] | 0.2 | 2.3 | considerably less toxic; also recorded: reduced toxicity | comparable response | inhibition of AtchitIV5 N-glycosylation (in words) [1]: less effective inhibitor
CC(C)CCCCCCCCC/C=C/C(=O)N[C@@H]1C(O)C(O)[C@@H](C[C@@H](O)C2O[C@@H](n3ccc(=O)[nH]c3=O)[C@H](O)[C@@H]2O)O[C@H]1O[C@H]1O[C@@H](CO)[C@@H](O)C(O)C1N=[N+]=[N-] (some centres unmarked) [Compound 4] | 0 | 1.6 | essentially non-toxic; also recorded: reduced toxicity | almost equivalent to the native tunicamycin | 
[N-]=[N+]=NC1C(O)[C@H](O)C(CO)O[C@@H]1OC1O[C@H](C[C@@H](O)C2O[C@@H](n3ccc(=O)[nH]c3=O)[C@H](O)[C@@H]2O)C(O)C(O)[C@H]1N1C(=O)c2ccccc2C1=O (some centres unmarked) [Compound 5] | 0 | 0 |  |  | 
COc1ccc(O[C@@H]2OC([C@H](O)C[C@H]3OC(O[C@H]4OC(CO)[C@@H](O)C(O)C4NC(C)=O)[C@H](N)C(O)C3O)[C@@H](O)[C@H]2O)cc1 (some centres unmarked) [Compound 6] | 0 | 0 | no antimicrobial biological activity | no antimicrobial biological activity | 
COc1ccc(O[C@@H]2OC([C@H](O)C[C@H]3O[C@@H](O[C@H]4O[C@@H](CO)[C@@H](O)C(O)C4NC(C)=O)[C@H](NC(=O)/C=C/CCCCCCCCCC(C)C)C(O)C3O)[C@@H](O)[C@H]2O)cc1 (some centres unmarked) [Compound 7] | 0 | 0 | no antimicrobial biological activity | no antimicrobial biological activity | 
CC(=O)NC1C(O)[C@H](O)C(CO)O[C@@H]1OC1O[C@H](C[C@@H](O)C2O[C@@H](n3ccc(=O)[nH]c3=O)[C@H](O)[C@@H]2O)C(O)C(O)[C@H]1NC(C)=O (some centres unmarked) [Compound 9] | 0 | 0 |  |  | 
CC(=O)NC1C(O)[C@H](O)[C@H](CO)O[C@@H]1O[C@@H]1O[C@H](C[C@@H](O)C2O[C@@H](n3cnc4c(N)ncnc43)[C@H](O)[C@@H]2O)C(O)C(O)[C@H]1NC(=O)/C=C/CCCCCCCCCC(C)C (some centres unmarked) [Compound 10] | 0 | 0 | no antimicrobial biological activity | no antimicrobial biological activity | 
COc1cccc(OC)c1C(=O)N[C@@H]1C(=O)N2[C@@H]1SC(C)(C)[C@@H]2C(=O)O [methicillin] |  |  |  |  | MIC of the beta-lactam without any tunicamycins or tunicamycin related compounds added (B. subtilis strain MW10): 0.125 µg/mL
Cc1onc(-c2ccccc2)c1C(=O)N[C@@H]1C(=O)N2[C@@H]1SC(C)(C)[C@@H]2C(=O)O [oxacillin] |  |  |  |  | MIC (B. subtilis strain MW10; Bacillus subtilis, MW10, read-out: MIC of oxacillin only): 0.125 µg/mL; MIC of the beta-lactam without any tunicamycins or tunicamycin related compounds added (B. subtilis strain MW10): 0.25 µg/mL
CC1(C)S[C@@H]2[C@H](NC(=O)Cc3ccccc3)C(=O)N2[C@H]1C(=O)O [penicillin G] |  |  |  |  | MIC of the beta-lactam without any tunicamycins or tunicamycin related compounds added (B. subtilis strain MW10): 0.025 µg/mL
C[C@H]1[C@@H](c2cc(C(F)(F)F)cc(C(F)(F)F)c2)OC(=O)N1C(=O)CCc1cncc2ccccc12 [tarocin A1] |  |  |  |  | depletion of the cell wall teichoic acid polymer (in words) [2]: complete depletion
quinovosamycin |  |  |  |  | toxicity to CHO cells (in words) [3]: toxic
